Drawing on paper PMC6696238, “Novel Benzothiazole-Based Ureas as 17β-HSD10 Inhibitors, A Potential Alzheimer’s Disease Treatment” (Molecules, 2019), this text covers remaining activity and melting point for 26 compounds.

The target of one data set is T1, 17β-HSD10 (Homo sapiens, UniProt Q99714).
T1 sequence (Q99714 1-261): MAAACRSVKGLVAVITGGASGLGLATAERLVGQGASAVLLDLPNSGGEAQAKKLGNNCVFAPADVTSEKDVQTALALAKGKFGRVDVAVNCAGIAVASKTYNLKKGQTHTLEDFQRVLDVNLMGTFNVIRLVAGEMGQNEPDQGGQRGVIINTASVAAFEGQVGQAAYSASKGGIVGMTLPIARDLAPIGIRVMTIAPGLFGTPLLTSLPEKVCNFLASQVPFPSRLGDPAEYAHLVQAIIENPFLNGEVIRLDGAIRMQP
The data set is described as follows: recombinant 17β-HSD10 enzyme activity assay (primary NADH screen and dose response). Set-up: made in house. Particulars: relative remaining activity, 25 μM compound, six independent measurements ± SEM; read-out: 17β-HSD10 activity in the presence of compound at 25 μM (Primary Screen). The format is biochemical. The source says: In order to reduce attrition rates and improve assay reproducibility we have developed a high throughput screening (HTS) pipeline (Figure 3 [19]). In brief, compounds are screened in the recombinant 17β-HSD10 enzyme activity assay (Table 5, Figure 4). Our best previously published compounds have set the threshold of 40% remaining 17β-HSD10 activity as a minimum standard and if compounds can better this threshold, they are further screened using our orthogonal counter assays, dose response assays and kinetic assessment (Table 5). Finally, if passing these criteria with favourable characteristics, the compounds progress into cellular evaluation through cytotoxicity testing and measuring 17β-HSD10 activity within cells (Table 6).
Full results for the primary nicotinamide adenine dinucleotide (NADH) assay screens are shown in Figure 4 including our four best previously published compounds for comparison (Figure 1).
Purification of 17β-HSD10 protein was performed as described in our previous work.
Compound screening, dose response and mechanism of inhibition experiments were performed as described in Hroch et al. 2016, with the exceptions being an alteration in assay buffer (10 mM Tris HCl (pH 7.4), 150 mM NaCl, 1 mM DTT, 0.005% Tween20, 0.01% BSA) and a change in temperature to 25 °C, to improve enzyme stability and assay reliability as compound solubility improved, as outlined in our previous work.

As to `COc1ccc2nc(NC(=O)Nc3ccc(O)c(C)c3)sc2c1` [Compound 2, 1-(4-Hydroxy-3-methylphenyl)-3-(6-methoxybenzo[d]thiazol-2-yl)urea], the melting point – broadly, the temperature of the solid-liquid transition – is 262 to 263 °C. On 17β-HSD10, the remaining activity at 25 µM was determined as 52.2 ± 3.67%.
`COc1ccc2nc(NC(=O)Nc3ccc(O)c(C(C)(C)C)c3)sc2c1` [Compound 3, 1-(3-(Tert-butyl)-4-hydroxyphenyl)-3-(6-methoxybenzo[d]thiazol-2-yl)urea]: the melting point lay in the range of 259 to 260 °C. In addition, the remaining activity at 25 µM on 17β-HSD10 came out at 41 ± 0.45%.
Compound `COc1ccc2nc(NC(=O)Nc3ccc(O)c(C#N)c3)sc2c1` [Compound 4, 1-(3-Cyano-4-hydroxyphenyl)-3-(6-methoxybenzo[d]thiazol-2-yl)urea] had a melting point of 277 to 279 °C. The remaining activity at 25 µM on 17β-HSD10 came to 96.5 ± 2.03%.
In turn, `COc1ccc2nc(NC(=O)Nc3ccc(O)c(N)c3)sc2c1` [Compound 7, 1-(3-Amino-4-hydroxyphenyl)-3-(6-methoxybenzo[d]thiazol-2-yl)urea] returned a melting point of 180 to 181 °C. Also, the remaining activity at 25 µM on 17β-HSD10 was 82.5 ± 2.39%.
On the same counts, the results for `COc1ccc2nc(NC(=O)Nc3ccc(O)nc3)sc2c1` [Compound 8, 1-(6-Hydroxypyridin-3-yl)-3-(6-methoxybenzo[d]thiazol-2-yl)urea] are 272 to 273 °C and 63.3 ± 3.42%.
Consider `COc1ccc2nc(NC(=O)Nc3ccc(N)cc3)sc2c1` [Compound 9, 1-(4-Aminophenyl)-3-(6-methoxybenzo[d]thiazol-2-yl)urea], for which the melting point was 304 to 306 °C (dec.). In addition, at 17β-HSD10, the remaining activity at 25 µM was determined as 105 ± 3.17%.
With `COc1ccc2nc(NC(=O)Nc3ccc(N)c(Cl)c3)sc2c1` [Compound 10, 1-(4-Amino-3-chlorophenyl)-3-(6-methoxybenzo[d]thiazol-2-yl)urea], the melting point was 310 to 311 °C (dec.). Also, the remaining activity at 25 µM on 17β-HSD10 was determined as 117 ± 3.94%.
The compound `COc1ccc2nc(NC(=O)Nc3ccc(CO)c(Cl)c3)sc2c1` [Compound 11, 1-(3-Chloro-4-(hydroxymethyl)phenyl)-3-(6-methoxybenzo[d]thiazol-2-yl)urea] had a melting point of 229 to 230 °C. At 17β-HSD10, the remaining activity at 25 µM is 110 ± 3.8%.
`Oc1ccc(Nc2nc3ccc(Cl)cc3s2)cc1Cl` [Compound 23, 2-Chloro-4-((6-chlorobenzo[d]thiazol-2-yl)amino)phenol] registered a melting point of 213 to 214.5 °C. At 17β-HSD10, the remaining activity at 25 µM stood at 120 ± 13.5%.
`COc1ccc2nc(NC(=O)c3ccc(O)c(Cl)c3)sc2c1` [Compound 26]: on 17β-HSD10, the remaining activity at 25 µM was 105 ± 4.99%.
For `COc1ccc2nc(NC(=O)NCc3ccc(O)c(Cl)c3)sc2c1` [Compound 28, 1-(3-Chloro-4-hydroxybenzyl)-3-(6-methoxybenzo[d]thiazol-2-yl)urea], the melting point was in the range of 249 to 251 °C. Further, the remaining activity at 25 µM on 17β-HSD10 stood at 101 ± 4.6%.
`COc1ccc2nc(NC(=O)NCc3ccc(O)c(O)c3)sc2c1` [Compound 29, 1-(3,4-Dihydroxybenzyl)-3-(6-methoxybenzo[d]thiazol-2-yl)urea] returned a melting point of 141.5 to 142 °C. On 17β-HSD10, the remaining activity at 25 µM was found to be 63.5 ± 2.58%.
Take `COc1ccc2nc(NC(c3ccc(F)cc3)P(=O)(OC)OC)sc2c1` (stereo not drawn) [Compound 34, Dimethyl ((4-fluorophenyl)((6-methoxybenzo[d]thiazol-2-yl)amino)methyl) phosphonate, reference compound]: the remaining activity at 25 µM on 17β-HSD10 came out at 95.4 ± 1.16%.
On the same count and under the same terms, as for `COc1ccc2nc(NC(c3ccc(O)cc3)P(=O)(OC)OC)sc2c1` (stereo not drawn) [Compound 35, Dimethyl ((4-hydroxyphenyl)((6-methoxybenzo[d]thiazol-2-yl)amino)methyl) phosphonate, reference compound], the figure is 96.6 ± 1.35%; as for `COC(=O)c1cc(C(Nc2nc3ccc(OC)cc3s2)P(=O)(OC)OC)ccc1O` (stereo not drawn) [Compound 36, Methyl 5-((dimethoxyphosphoryl)((6-methoxybenzo[d]thiazol-2-yl)amino)methyl)-2-hydroxybenzoate, reference compound], 95.9 ± 2.09%.
Consider `COc1ccc2nc(NC(c3ccc(O)c(Cl)c3)P(=O)(OC)OC)sc2c1` (stereo not drawn) [Compound 37, Dimethyl ((3-chloro-4-hydroxyphenyl)((6-methoxybenzo[d]thiazol-2-yl)amino)methyl) phosphonate], for which the melting point was in the range of 198 to 199 °C. Further, the remaining activity at 25 µM on 17β-HSD10 amounted to 97.83 ± 0.88%.
For `CN(C(=O)Nc1ccc(O)c(Cl)c1)c1nc2ccccc2s1` [Compound 41, 1-(Benzo[d]thiazol-2-yl)-3-(3-chloro-4-hydroxyphenyl)-1-methylurea], in that order: 171 to 172 °C and 106 ± 20.9%.
On the same counts, the results for `CN(C(=O)Nc1nc2ccccc2s1)c1ccc(O)c(Cl)c1` [Compound 45, 3-(Benzo[d]thiazol-2-yl)-1-(3-chloro-4-hydroxyphenyl)-1-methylurea] are 139 to 141 °C and 77.3 ± 1.43%.
On the same counts, the results for `COc1ccc2nc(NC(=O)N(C)c3ccc(O)c(Cl)c3)sc2c1` [Compound 46, 1-(3-Chloro-4-hydroxyphenyl)-3-(6-methoxybenzo[d]thiazol-2-yl)-1-methylurea] are 220 °C (dec.) and 97.8 ± 1.32%.
In turn, `CN(C(=O)N(C)c1nc2ccccc2s1)c1ccc(O)c(Cl)c1` [Compound 49, 1-(Benzo[d]thiazol-2-yl)-3-(3-chloro-4-hydroxyphenyl)-1,3-dimethylurea] came in with a melting point of 227 to 228.5 °C. On 17β-HSD10, the remaining activity at 25 µM amounted to 105 ± 2.21%.
For `O=C(Nc1ccc(O)c(Cl)c1)Nc1nc2c(s1)CCCC2` [Compound 71, 1-(3-Chloro-4-hydroxyphenyl)-3-(4,5,6,7-tetrahydrobenzo[d]thiazol-2-yl)urea], in that order: 258 to 260 °C and 55.8 ± 1.54%.
On the same counts, the results for `O=C(Nc1ccc(O)c(Cl)c1)NC1Cc2ccccc2C1` [Compound 72, 1-(3-Chloro-4-hydroxyphenyl)-3-(2,3-dihydro-1H-inden-2-yl)urea] are 203 to 205 °C and 79.2 ± 2.56%.
On the same counts, the results for `O=C(Nc1ccc(O)c(Cl)c1)Nc1nc(-c2ccc(Cl)cc2)cs1` [Compound 73, 1-(3-Chloro-4-hydroxyphenyl)-3-(4-(4-chlorophenyl)thiazol-2-yl)urea] are 206 to 208 °C and 102 ± 3.65%.
`O=C(Nc1ccc(O)c(Cl)c1)Nc1nccs1` [Compound 74, 1-(3-Chloro-4-hydroxyphenyl)-3-(thiazol-2-yl)urea]: the melting point was in the range of 220 to 222 °C. In addition, on 17β-HSD10, the remaining activity at 25 µM is 74.5 ± 0.63%.
On the same counts, the results for `COc1ccc(CCNC(=O)Nc2ccc(O)c(Cl)c2)cc1` [Compound 75, 1-(3-Chloro-4-hydroxyphenyl)-3-(4-methoxyphenethyl)urea] are 161.5 to 163.5 °C and 73.3 ± 4.33%.
For `O=C(Nc1ccc(O)c(Cl)c1)Nc1ccc2ncsc2c1` [Compound 76, 1-(Benzo[d]thiazol-6-yl)-3-(3-chloro-4-hydroxyphenyl)urea], in that order: 224 to 226 °C and 43.8 ± 0.77%.
